Test results published in patent publication US5700640A, “Inducers of gamma globin gene expression and screening assays therefor” (priority 1994, dated 1997).

Tests used:
[1] = test system: gamma globin-regulated luciferase mRNA; test: cells; type: cell-based, human
Experimental: Total RNA was prepared by the method of McDonald as described in Sambrook et al., (1989) Molecular Cloning: A Laboratory Manual, 2nd Edition, Cold Spring Harbor Laboratory Press. 10 μg total cellular RNA was electrophoresed through agarose gels containing 3.3% formaldehyde. The electrophoresed RNA was then transferred to nitrocellulose filters by standard methods. Each sample was hybridized to specific probes for gamma globin mRNA, mRNA encoding the erythroid specific transcription factor GATA-1 and 28S ribosomal RNA (which was used for standardization). The gamma globin and GATA-1 probes were cDNA probes, which were labeled with ^32 p by random priming reactions (Promega Biotech Inc.). The 28S ribosomal RNA probe was an oligonucleotide having the sequence 5' […] 3' (SEQ ID NO: 3), which was labeled by 5' end labeling using T4 polynucleotide kinase (New England Biolabs). Nucleotide probes were hybridized to the RNA nitrocellulose filters according to standard techniques. After hybridization, radioactive signals on the nitrocellulose filters were directly quantified using a BioRad GS-250 Molecular Imager. mRNA hybridization intensities were normalized to the amount of 28S ribosomal RNA present for each sample. The results are summarized below in Table 1:
To determine if BA exerts its inductive effects by acting directly on pre-existing proteins in the cells, the effect of the protein synthesis inhibitor cycloheximide (CHX) on BA-induced expression of RNA was analyzed. In these experiments, gamma3'PE cells were incubated with 150 μg/ml CHX for 2 hr prior to addition of BA (5 mM). Control cells were incubated with either CHX or BA alone or were mock incubated. Cells were harvested 5 hr later for preparation of total RNA. RNA samples were electrophoresed, transferred to nitrocellulose and hybridized to a ^32 P-labeled luciferase cDNA probe as described in Example 4. The radioactive signals on the filter were quantitated using a BioRad GS-250 Molecular Imager and mRNA levels were normalized to values obtained for mock treated samples. […]

GATA-1 mRNA = GATA-1 mRNA level (Northern) with BA and/or cycloheximide in gamma3'PE cells; type: cell-based, human
Experimental: To determine if BA exerts its inductive effects by acting directly on pre-existing proteins in the cells, the effect of the protein synthesis inhibitor cycloheximide (CHX) on BA-induced expression of RNA was analyzed. In these experiments, gamma3'PE cells were incubated with 150 μg/ml CHX for 2 hr prior to addition of BA (5 mM). Control cells were incubated with either CHX or BA alone or were mock incubated. Cells were harvested 5 hr later for preparation of total RNA. RNA samples were electrophoresed, transferred to nitrocellulose and hybridized to a ^32 P-labeled luciferase cDNA probe as described in Example 4. The radioactive signals on the filter were quantitated using a BioRad GS-250 Molecular Imager and mRNA levels were normalized to values obtained for mock treated samples. The results are presented graphically in FIG. 12, Panel A. BA treatment alone increased gamma globin-regulated luciferase mRNA by approximately 6 fold.
The results, normalized to mock treated samples, are depicted graphically in FIG. 12, Panel B. In contrast to luciferase mRNA which was induced by BA treatment, the level of GATA-1 RNA decreases about 3 fold in response to BA treatment.

[2] = test system: gamma globin reporter gene activity in gamma3'PE K562 cells (protein kinase C inhibition); test: effect of the pKC inhibitor hypericin on basal and BA-induced reporter gene activity; type: cell-based, human; settings: 10 mM hypericin, 1 hour before 5 mM BA for 24 hours
Experimental: Consistent with the results using the pKC activator (-) indolactam V are the results of experiments utilizing the pKC inhibitor hypericin. In these experiments, cells were incubated in the presence or absence of hypericin (10 mM; LC Laboratories) for one hour prior to treatment with 5 mMBA for 24 hours, followed by harvesting of the cells and assaying of luciferase activity.

[3] = test system: 14C BA transport into K562 cells; test: 14C butyric acid incorporation into gamma3'PE-transfected K562 cells; type: cell-based, human; settings: valinomycin 10 μM, 1 hour preincubation; 50 μM 14C BA
Experimental: To directly examine whether transport of BA into erythroid cells required an intact K+ gradient, the incorporation of ^14 C BA into gamma3'PE-transfected K562 cells was assayed in the presence and absence of 10 μM valinomycin. Cells were incubated with 10 μM valinomycin for 1 hour prior to addition of ^14 C butyric acid (obtained commercially from Dupont/New England Nuclear) to a final concentration of 50 μM. At various times after addition of ^14 C BA, cells were harvested by vacuum filtration through a GF/C filter (Whatman) and washed with a total of 5 ml of RPMI culture media. Radioactivity associated with the cells was quantified directly by liquid scintillation counting of the filter. The results, shown in FIG. 11, indicate that the rate of ^14 C BA incorporation into the cells is inhibited nearly three fold by the addition of valinomycin. Although cells treated with valinomycin did accumulate some ^14 C BA, it is not clear whether this was actually internalized or bound to the surface of the cell. Neutralization of the potassium gradient could be expected to selectively prevent internalization but not binding of radioligand. […] Accordingly, the results described herein are consistent with an erythroid-specific transport mechanism for uptake of BA that is dependent upon an intact K^+ gradient across the cell membrane.

BA uptake by colonocytes = settings: Mascolo et al. 1991; cited from earlier work
[4] = test system: BA-mediated induction of luciferase activity in gamma3'PE K562 cells; test: effect of transport inhibitors on BA-induced reporter gene activity in gamma3'PE K562 cells; type: cell-based, human
Experimental: To characterize uptake of butyric acid by erythroid cells, K562 cells stably transfected with gamma3'PE were treated with BA in the presence of various transport inhibitors. […] Cells were maintained in the continuous presence of both BA and the inhibitor for 24 hours and then luciferase activity in the cells was measured.

K562 cells = test: trypan blue exclusion; type: cell-based, human
[5] = test system: BA-induced reporter gene expression in gamma3'PE K562 cells; test: effect of extracellular KCl on BA-induced reporter gene activity; type: cell-based, human
Experimental: Valinomycin is a potassium ionophore known to cause depolarization of the K^+ gradient existing across cell membranes. To determine whether the effect of valinomycin indicated a requirement for a K^+ gradient for uptake of BA, gamma3'PE reporter cells were incubated in the presence of culture medium supplemented with increasing concentrations of KCl. Thus, as opposed to valinomycin, this treatment extinguishes the existing K^+ gradient from the external side of the membrane without affecting internal K^+ concentrations. Cells cultured in increasing concentrations on KCl were treated for 5 hours with BA and then harvested and assayed for luciferase activity. The results are shown in FIG. 10, wherein the bars indicate the level of reporter gene activity after induction in the presence of the indicated concentration of KCl and the asterisks indicate basal (uninduced) levels of reporter gene activity in replicate cultures.

## C[C@@H]1C[C@@H]([C@H](O)CC2CC(=O)NC(=O)C2)C(=O)[C@@H](C)C1 [cycloheximide]
[1]; 150 μg/ml CHX alone
  effect of cycloheximide alone on luciferase mRNA: significant increase in gamma globin-regulated luciferase mRNA, albeit to a lower level than that observed with BA
[1]; CHX 150 μg/ml 2 hr before BA 5 mM
  effect of cycloheximide on BA-mediated induction of luciferase mRNA: failed to block BA-mediated induction of luciferase mRNA
GATA-1 mRNA; 150 μg/ml CHX alone
  effect of cycloheximide alone on GATA-1 mRNA level: insensitive to cycloheximide treatment alone
GATA-1 mRNA; CHX 150 μg/ml plus BA 5 mM
  effect of cycloheximide on BA induced decrease in GATA-1 mRNA level: sensitive to cycloheximide treatment

## Cc1cc(O)c2c(=O)c3c(O)cc(O)c4c5c(O)cc(O)c6c(=O)c7c(O)cc(C)c8c1c2c(c34)c(c78)c65 [hypericin]
[2]
  effect on basal level and BA induced globin gene expression: significant reduction in both basal level and BA induced globin gene expression

## CC(C)[C@@H]1NC(=O)[C@H](C)OC(=O)[C@@H](C(C)C)NC(=O)[C@@H](C(C)C)OC(=O)[C@H](C(C)C)NC(=O)[C@H](C)OC(=O)[C@@H](C(C)C)NC(=O)[C@@H](C(C)C)OC(=O)[C@H](C(C)C)NC(=O)[C@H](C)OC(=O)[C@@H](C(C)C)NC(=O)[C@@H](C(C)C)OC1=O [valinomycin]
[3]
  inhibition of rate of 14C BA incorporation: three
BA uptake by colonocytes
  effect on BA uptake by colonocytes: not inhibited by valinomycin
[4]; valinomycin 10 μM, 24 hours
  reduction in BA-mediated globin gene induction: 4 fold
[4]; valinomycin, no BA
  effect on basal level globin gene expression: did not affect basal level globin gene expression
K562 cells
  non-specific toxic effect: did not result from a non-specific toxic effect

## [Cl-].[K+] [KCl]
[5]; K+ above approximately 200 mM
  basal level globin expression at higher K+ concentrations: a reduction in basal level globin expression was observed at higher K^+ concentrations
[5]; KCl in medium, BA 5 hours
  external K+ concentration inhibiting BA-induced reporter gene expression: approximately 200 mM
[5]; approximately 200 mM KCl
  effect on basal level gene expression: basal level gene expression was not affected
